Source: PMC9944496 (Food Chemistry: X, 2023)

Molecular target: T1, AbXOD (Acinetobacter baumannii xanthine oxidase; "wild-type" = AbXDH Y351V) (Acinetobacter baumannii, UniProt A0A0U3AJU6)
T1 construct: gene xdhB
Details: 50 mmol/L Tris/HCl pH 8.5, 40 °C; apparent Km; paper's wild-type carries Y351V in A subunit; substrate inhibition constant; second site

`O=c1[nH]c(=O)c2[nH]cnc2[nH]1` [xanthine] was tested, and the “Ki” value was 21.11 mM.
